Results on 2 molecules are retold here after patent US20120009152A1, “NITRIC OXIDE DONORS FOR TREATMENT OF DISEASE AND INJURY” (priority 2002, published 2012).

The structures appear in SMILES notation.

Type in all cases: in vivo, rat
For assay [1], the system named is BrdU positive cells in the subventricular zone. Put plainly: BrdU positive cells in ipsilateral subventricular zone, combination study. Conditions: treatment 1 day after MCAo; NN 0.4 mg/kg IP, hMSCs 1×10^6 cells iv; PBS control 29.8±8.8. The protocol: (§1) Male Wistar rats (n=32) were subjected to middle cerebral artery occlusion (MCAo) and were randomized with 8 rats in four treatment groups, with treatment initiated 1 day after stroke. Groups included: 1) phosphate buffered saline (PBS); 2) subtherapeutic DETA-NONOate (NN) at a dose of 0.4 mg/kg (IP); 3) subtherapeutic hMSCs (1×10^6 cells-iv); and 4) combination subtherapeutic NN and hMSCs. Functional outcome measurements consisted of a Neurologic Severity Scale (18 point scale) (NSS) and the Adhesive Removal Test performed prior to stroke, immediately before treatment and at 7 and 14 days after treatment. […] However, there was an overall hMSC effect on NSS at 14 days.
BrdU (50 mg/kg-ip) was injected daily for 14 days after treatment in all groups. BrdU is a thymidine analog that labels newly formed DNA and thereby identifies newly formed cells. […] BrdU found in the cytoplasm of macrophage-like cells were not counted. […] The percentage of BrdU reactive cells that express NeuN and GFAP proteins was approximately, 3%, 3% and 6%, respectively.

For assay [2], the system named is rats subjected to middle cerebral artery occlusion (MCAo). Put plainly: Adhesive Removal Test after MCAo, combination study. Conditions: treatment 1 day after stroke; NN 0.4 mg/kg IP, hMSCs 1×10^6 cells iv; vs control. On the procedure:
as §1

Assay [3] relates to rats subjected to embolic middle cerebral artery occlusion. Put plainly: Infarct volume 28 days after embolic MCA occlusion. Conditions: 28 days after ischemia. The protocol:
(§2) Male Wistar rats weighing 320 to 380 g were used in the present study. The middle cerebral artery (MCA) was occluded by placement of an embolus at the origin of the MCA.
(§3) Ischemic rats (n=9) were treated with the same volume of tap water as a control group. Functional tests were performed and body weight was measured before ischemia and at 4, 7, 14, 21, and 28 days after onset of MCA occlusion. All rats were killed 28 days after MCA occlusion. […] These rats were killed 1 hour after the last treatment for measurements of brain levels of cGMP. […] Experiments were also performed to examine brain PDE5, nonischemic rats and ischemic rats were killed at 2, 4, 24, 48, and 168 hours after the onset of ischemia (n=3 for each time point). Reverse transcription (RT)-polymerase chain reaction (PCR) was performed to detect PDE5 in brain tissue.
Measurement of infarct volume was measured on 7 hematoxylin and eosin-stained coronal sections with the use of a Global Laboratory Image analysis program (Data Translation). Briefly, the area of both hemispheres and the infarct area (mm 2) were calculated by tracing the area on the computer screen. Infarct volume (mm 3) was determined by multiplying the appropriate area by the section interval thickness. The infarct volume is presented as the percent-age of infarct volume of the contralateral hemisphere (indirect volume calculation).

A further assay deals with nonischemic rats. Kind of assay: Localized CBF by laser-Doppler flowmetry. Conditions: sildenafil 2 mg/kg. On the procedure: Ischemic rats (n=9) were treated with the same volume of tap water as a control group. Functional tests were performed and body weight was measured before ischemia and at 4, 7, 14, 21, and 28 days after onset of MCA occlusion. All rats were killed 28 days after MCA occlusion. […] These rats were killed 1 hour after the last treatment for measurements of brain levels of cGMP. […] Reverse transcription (RT)-polymerase chain reaction (PCR) was performed to detect PDE5 in brain tissue. Relative erythrocyte flow velocity was measured by laser-Doppler flowmetry (PeriFlux PF4 flowmeter; Perimed AB) in the tissue under the laser-Doppler flowmetry probe. 13 A burr hole 1.5 mm in diameter was drawn on the skull 2 mm posterior to the bregma and 6 mm lateral to midline. 13 The dura was left intact. After the application of mineral oil onto the burr hole, the probe was laced 0.5 mm above the dural surface. […] This measurement reflects relatively localized CBF. 14 Values of flow velocities are presented as a percentage of the contralateral hemispheric values.

Assay [4] concerns rats subjected to embolic middle cerebral artery occlusion. Put plainly: Foot-fault test after embolic MCA occlusion. The protocol:
as §2, §3
Rats were tested for placement dysfunction of forelimbs with the modified foot-fault test before ischemia and at 4, 7, 14, 21, and 28 days after embolic ischemia. Rats were set on an elevated hexagonal grid of different sizes and placed their paws on the wire while moving along the grid. With each weight-bearing step, the paw may fall or slip between the wire. The total number of steps (movement of each forelimb) that the rat used to cross the grid was counted, and the total number of foot-faults for each forelimb was recorded.

Take `NCCN(CCN)/[N+]([O-])=N/O` [DETANONOate, (Z)-1-[N-(2-aminoethyl)-N-(2-ammonioethyl)aminio]diazen-1-ium-1,2-diolate]: in assay [1], the “BrdU positive cells in the ipsilateral hemisphere subventricular zone” value was 43.6±10.0 /section. In addition, in assay [2], the “Adhesive-Removal test score at 14 days” value is given as “no significant improvement”.

As to `CCCc1nn(C)c2c(=O)[nH]c(-c3cc(S(=O)(=O)N4CCN(C)CC4)ccc3OCC)nc12` [Sildenafil], the “Infarct Volume, %” value in assay [3] (Sildenafil 2 mg/kg, 2 h, percentage of lesion relative to the contralateral hemisphere) was found to be 35.2 ± 3.3%; in assay [3] (Sildenafil 2 mg/kg, 24 h), 35.5 ± 0.9%; in assay [3] (Sildenafil 5 mg/kg, 2 h), 37.7 ± 4.3%. Further, the “duration of significantly increased localized CBF after administration” value with nonischemic rats turned out to be 70 min. For the same molecule, the “localized CBF levels” value in the assay on nonischemic rats (vs control rats) is “significantly increased localized CBF levels”. Also, the “% of Foot-Faults” value in assay [4] (Sildenafil 2 mg/kg, 2 h, 4 d after ischemia) is reported as 22.81 ± 3.1%; in assay [4] (Sildenafil 2 mg/kg, 2 h, 7 d) it was 15.2 ± 1.6 %; in assay [4] (Sildenafil 2 mg/kg, 2 h, 14 d) it was 13.2 ± 1.2 %; in assay [4] (Sildenafil 2 mg/kg, 2 h, 21 d) it was 9.1 ± 1.5 %; in assay [4] (Sildenafil 2 mg/kg, 2 h, 28 d), 8.2 ± 1.4%; in assay [4] (Sildenafil 2 mg/kg, 2 h group, Before Ischemia (baseline)), 1.1 ± 0.01%. The “% of Foot-Faults” value in assay [4] (Sildenafil 2 mg/kg, 24 h, 4 d) came to 25.3 ± 3.8%; in assay [4] (Sildenafil 2 mg/kg, 24 h, 7 d), 14.4 ± 1.0 %; in assay [4] (Sildenafil 2 mg/kg, 24 h, 14 d) it was 10.0 ± 0.5 %; in assay [4] (Sildenafil 2 mg/kg, 24 h, 21 d) it was 9.0 ± 0.5 %; in assay [4] (Sildenafil 2 mg/kg, 24 h, 28 d), 5.3 ± 0.8 %; in assay [4] (Sildenafil 2 mg/kg, 24 h group, Before Ischemia (baseline)), 1.03 ± 0.03%. For the same molecule, the “% of Foot-Faults” value in assay [4] (Sildenafil 5 mg/kg, 2 h, 4 d) is listed as 17.9 ± 2.9%; in assay [4] (Sildenafil 5 mg/kg, 2 h, 7 d) it was 16.6 ± 1.4 %; in assay [4] (Sildenafil 5 mg/kg, 2 h, 14 d), 14.6 ± 2.1 %; in assay [4] (Sildenafil 5 mg/kg, 2 h, 21 d), 9.5 ± 1.6 %; in assay [4] (Sildenafil 5 mg/kg, 2 h, 28 d) it was 7.6 ± 1.4%; in assay [4] (Sildenafil 5 mg/kg, 2 h group, Before Ischemia (baseline)), 1.02 ± 0.02%.
